Laboratory results published in PubChem BioAssay AID2423 (Broad Institute, 2010).
Inconclusive results are not listed. The source made the active and inactive calls. The rule behind the calls is not given here.

These compounds were tested on C. albicans CaCi-8 + fluconazole, Alamar Blue growth, 48 h (assay: resistant C. albicans growth inhibition with fluconazole, dose response, CaCi-8 strain, Alamar Blue fluorescence (AID 2423)).

Structure (SMILES)	EC50
C/C(=N\NC(=O)c1nn(C)c(C)c1Br)c1ccc(NC(=O)C2CCCC2)cc1	> 15000 nM (inactive)
CCOC(=O)CC(/C(C)=N\O)c1ccccc1 (stereo not given)	> 16000 nM (inactive)
COc1cccc2sc(=NC(=O)CS(=O)(=O)c3ccc(Cl)cc3)n(C)c12	6530 nM
COc1cccc(C(=O)NNC(=O)c2ccccc2Br)c1	> 15000 nM (inactive)
O=C(CCS(=O)(=O)c1ccccc1)Nc1nnc(C(F)(F)F)s1	> 16000 nM (inactive)
CCc1cc(C(=O)NNC(=S)Nc2cc(C)ccc2C)cs1	422 nM
CN1CCN(C(c2cccnc2)c2ccc3cccnc3c2O)CC1 (stereo not given)	> 16000 nM (inactive)
COc1ccc(-c2csc(N(CC3CCCO3)C(=O)c3ccco3)n2)cc1 (stereo not given)	> 16000 nM (inactive)
O=C(Nc1nnc(COc2ccc(F)cc2)s1)c1ccco1	7770 nM
Cc1ccc(Nc2nc(N)c([N+](=O)[O-])c(N3CCC(C)CC3)n2)cc1C	3640 nM
Cc1ccc(SCCC(=O)N/N=C/c2ccccc2O)cc1	14000 nM
CCCOc1cccc(-c2nnc(NC(=O)c3ccco3)s2)c1	622 nM
CC(=O)NC(c1ccc(C)cc1)c1cc([N+](=O)[O-])c2cccnc2c1O (stereo not given)	201 nM
Cc1cc(C(=O)N/N=C/c2cc(Cl)cc([N+](=O)[O-])c2O)c2ccccc2n1	2790 nM
Cc1ccc(C)c(NC(=S)NNC(=O)c2csc(C)c2)c1	704 nM
CCOc1ccc2nc(N3C(=O)/C(=C/c4ccccc4)NC3=S)sc2c1	1410 nM
Oc1ccc(CN2CCN(Cc3ccccc3)CC2)c2cccnc12	> 16000 nM (inactive)
Cc1ccc(NC(=S)c2nc3ccccc3[nH]2)cc1	> 16000 nM (inactive)
COc1cccc(/C=N/NC(=O)c2cc(-c3cccn3C)n[nH]2)c1O	5640 nM
Cc1ccc(C2C3=C(CC(C)(C)CC3=O)N=C3c4ccccc4C(=O)C32)cc1 (stereo not given)	769 nM
Cc1ccc(NC(=O)c2ccc([N+](=O)[O-])o2)cc1C	1130 nM
CCN1/C(=C/c2ccc3cc(C)ccc3[n+]2CC)Sc2ccc3sccc3c21	< 120 nM

Structure (SMILES)	EC50
CCCC(=O)NC(c1ccc(OC)cc1)c1ccc2cccnc2c1O (stereo not given)	893 nM
Cc1cccc(NC(=O)CSC(N)=O)c1C	> 15000 nM (inactive)
COc1ccc(Cn2c(O)c(/C=N/NC(=O)c3cccnc3)c3ccccc3c2=O)cc1	765 nM
O=c1c2ccccc2nc(-c2ccc([N+](=O)[O-])cc2)n1O	6520 nM
CCOC(=O)Cc1csc(NC(=O)CSc2nc3sc(C(=O)O)c(C)c3c(=O)[nH]2)n1	> 16000 nM (inactive)
O=c1[nH]c(=S)[nH]nc1Cc1ccc(Cl)c(Cl)c1	1400 nM
Cc1cc2oc3ccc(NCCCn4ccnc4)cc3c(=O)c2cc1C	1990 nM
Cc1cccc(C(=O)O/N=C/c2c(N3CCOCC3)n(C)c3ccccc23)c1	799 nM
CCCCC(=O)NC(c1ccccc1)c1ccc2cccnc2c1O (stereo not given)	752 nM
FC(F)(F)c1ccccc1NC(=S)NN=C1CCCCCC1	4950 nM
Cc1cc([N+](=O)[O-])ccc1-c1ccc(C2Nc3ccccc3C(=O)N2O)o1 (stereo not given)	2440 nM
CCOC(=O)C1CCN(Cc2ccc(O)c3ncccc23)CC1	> 15000 nM (inactive)
COc1cccc(-c2nc(NC(C)C)c3ccccc3n2)c1O	3200 nM
Brc1cccc(CSc2nnc(-c3ccncc3)o2)c1	> 15000 nM (inactive)
CN1CCN(C(c2ccc(Br)cc2)c2cc(Cl)c3cccnc3c2O)CC1 (stereo not given)	624 nM
Cc1cc2ccccn2c1C(C[N+](=O)[O-])c1c(F)cccc1Cl (stereo not given)	382 nM
CC(=O)Nc1cccc(NC(=O)Nc2cccc(F)c2)c1	> 15000 nM (inactive)
c1ccc(CC2CCN(C3=Nc4cccc5cccc3c45)CC2)cc1	4400 nM
Cc1ccc(NC(=O)NC2CCCCCCC2)c(C)c1	> 16000 nM (inactive)
COc1cccc(/C=N/NC(=O)c2nc(-c3ccccc3)cc(-c3ccccc3)n2)c1O	1760 nM
CCCC(=O)NC(c1ccccc1OC)c1ccc2cccnc2c1O (stereo not given)	1040 nM
CC1CCN(Cc2c(C(=O)N/N=C/c3cc(Br)ccc3O)nnn2-c2nonc2N)CC1	908 nM

Structure (SMILES)	EC50
Fc1cccc2sc(Nc3nnc(-c4ccco4)o3)nc12	> 15000 nM (inactive)
C=CCn1c(COc2ccc(F)cc2)nnc1SCC(=O)Nc1cccc(S(N)(=O)=O)c1	> 16000 nM (inactive)
O=C(O)c1ccc(CN2C(=O)CSC2=S)cc1	> 15000 nM (inactive)
Cc1ccc(-n2c(-c3ccccc3)c[n+]3c2CCC3)cc1	8580 nM
Cc1cc(Cl)ccc1OCc1cn2cccnc2n1	5340 nM
O=C(O)COc1ccccc1C(Nc1cccnc1)c1cc(Cl)c2cccnc2c1O (stereo not given)	9890 nM
CO/N=C/c1ccc(N2CCN(C(=O)c3ccc(C)cc3)CC2)c([N+](=O)[O-])c1	2100 nM
O=C(NCc1ccccc1)c1sc(=S)n2c1[nH]c(=O)c1ccccc12	948 nM
Cc1oc2c(F)c(F)c(F)c(F)c2c1S(=O)(=O)Nc1cccc(C(F)(F)F)c1	1490 nM
Oc1ccccc1N=Nc1ccccc1O	973 nM
CCOc1ccc(NC(=O)NNC(=O)c2ccc3ccccc3c2O)cc1	2460 nM
CCCNC(=O)C12CCC(C)(c3nc4cc(C)c(C)cc4nc31)C2(C)C (stereo not given)	> 15000 nM (inactive)
CCOC(=O)c1c(NC(=O)C2Cc3ccccc3C(=O)O2)sc2c1CCCC2 (stereo not given)	> 16000 nM (inactive)
N/C(Cc1ccccc1)=N\OC(=O)c1cccc2ccccc12	1400 nM
O=C(Cc1ccccc1)Nc1nonc1NC(=O)c1ccccc1	477 nM
Cc1oc2ccc(OC(=O)N(C)C)cc2c1C(=O)OC(C)C	4000 nM
Cc1cc(NC(=O)c2ccc([N+](=O)[O-])o2)ccc1NC(=O)c1ccco1	338 nM
Cc1ccc(/C=N/NC(=O)C2=NNC(c3ccccc3)(c3ccccc3)C2)c(O)c1	> 16000 nM (inactive)
O=C(NC1CCCCC1)C(c1ccc(Cl)cc1)N(C(=O)c1cnccn1)c1ccc2c(c1)OCO2 (stereo not given)	9720 nM
COc1cccc(-c2nnc(NC(=O)c3ccc4ncsc4c3)o2)c1	1030 nM
Cc1cc(SCC(=O)N/N=C/c2ccc(O)c(O)c2O)c(C)cc1Br	884 nM
CC(CC(=O)Nc1ncc([N+](=O)[O-])s1)c1ccccc1 (stereo not given)	322 nM

Structure (SMILES)	EC50
Cc1cc(NC(=O)c2c(F)cccc2Cl)n(-c2nc3ccccc3[nH]2)n1	7390 nM
Cc1nc(NS(=O)(=O)c2ccc(Br)cc2)c2c3c(sc2n1)CCC3	> 16000 nM (inactive)
Cc1cccc(Sc2nc(-c3ccccc3)ncc2C(=O)O)c1	> 15000 nM (inactive)
O=C(Nc1nnc(-c2ccc3c(c2)CCCC3)o1)c1ccccc1	484 nM
O=C(Cc1ccccc1)N/N=C/c1cc(Br)cc(Cl)c1O	> 15000 nM (inactive)
O=C(c1ccc(Cn2c(=O)[nH]c3ccccc3c2=O)cc1)N1CCN(c2ccc(F)cc2)CC1	3250 nM
O=c1cc(-c2ccccc2)c2ccc(O)cc2o1	3530 nM
O=C1/C(=C\c2cccnc2)SC(=S)N1C1CCS(=O)(=O)C1 (stereo not given)	> 16000 nM (inactive)
CCOC(=O)Cc1csc(NC(=O)CSc2nnc(-c3ccncc3)o2)n1	< 120 nM
Cc1c(Cc2ccccc2)c(=O)oc2c(O)c(O)ccc12	2750 nM
CCn1c(SCC(=O)c2ccc(O)c(O)c2)nnc1-c1ccccc1OC	> 16000 nM (inactive)
CC(=O)NC1CCCN(O)C(=O)/C=C(\C)CCOC(=O)C(NC(C)=O)CCCN(O)C(=O)/C=C(\C)CCOC(=O)C(NC(C)=O)CCCN(O)C(=O)/C=C(\C)CCOC1=O (stereo not given)	783 nM
CCc1nn(CCCC(=O)NCc2ccc(C)cc2)c(=O)c2cc3occc3n12	> 16000 nM (inactive)
Cc1ccc(OCC(=O)NNC(=S)NC(=O)C2CC2)c(C)c1	830 nM
Oc1ccccc1/C=N/Nc1nccnc1Cl	1280 nM
Cc1ccc(-c2nnc(NC(=O)c3ccc([N+](=O)[O-])o3)o2)c(C)c1	2160 nM
O=C(NNC(=O)c1ccc2ccccc2c1O)c1ccccc1Cl	6110 nM
Cc1ccc(-c2cn(-c3ccccc3)c3[n+]2CCCS3)cc1	10300 nM
CCOc1ccc2nc3cc(NCc4ccc(OC)cc4)ccc3c(N)c2c1	4280 nM
CCCCCCSc1nnc2[nH]c(=O)cc(N)n12	1150 nM
NC1=NC[C@H](Cc2ccccc2)N1CCCCC1CCCCC1	7380 nM
CN1/C(=C\C(=O)C[n+]2ccc(C(=O)c3ccccc3)cc2)C(C)(C)c2ccccc21	4060 nM

Structure (SMILES)	EC50
CC(c1ccccc1)N1CCn2c(nc3cc(NS(C)(=O)=O)ccc32)C1 (stereo not given)	> 16000 nM (inactive)
CCCCCn1c(=O)c(C(=O)NCc2ccncc2)c(O)c2ccccc21	1720 nM
Oc1[nH]c2c(Cl)cc(Cl)cc2c1N=NC(=S)NCC1CCCO1 (stereo not given)	3580 nM
COc1cccc(C2CC(c3ccc(NS(C)(=O)=O)cc3)=NN2C(=O)c2ccccc2)c1OC (stereo not given)	3730 nM
O=c1cc2oc3cc(O)c(O)cc3c(-c3ccccc3[N+](=O)[O-])c-2cc1O	1520 nM
CCCOCc1ccc(O)c2ncccc12	2170 nM
O=C(CC(=O)c1cccc([N+](=O)[O-])c1)Nc1ccccc1Cl	954 nM
O=C1NC(=O)/C(=C/c2ccccc2Oc2ccc(Cl)cc2)S1	> 16000 nM (inactive)
O=C(Oc1c(Cl)cc(Cl)c2cccnc12)c1ccco1	465 nM
Cc1cccc2sc(NNC(=O)c3cc(-c4cccs4)nc4ccccc34)nc12	583 nM
C/C(=N\NC(=O)c1cc2ccccc2cc1O)c1ccccn1	1450 nM
COCc1nnc(NC(=O)c2ccc(S(=O)(=O)N3CCCc4ccccc43)cc2)o1	10500 nM
Cc1ccc(C(=O)Nc2nc3ccccc3c(=O)s2)cc1	458 nM
Cc1nnc(NC(=O)c2ccc(S(=O)(=O)N(C)Cc3ccccc3)cc2)o1	808 nM
Oc1c(C(Nc2cccc(C(F)(F)F)c2)c2cccnc2)ccc2cccnc12 (stereo not given)	2070 nM
COC1=CC(=O)C(O)=C(CCCCCCC/C=C/CCCCCCCC2=C(O)C(=O)C=C(OC)C2=O)C1=O	11900 nM
O=C(CCN1CCN(c2ccccc2)CC1)N/N=C/c1ccc(O)c(O)c1O	4020 nM
Cc1cc(N/N=C/c2c(O)ccc3ccccc23)nc(-c2ccccc2O)n1	133 nM
CCN(CC)c1ccc(/C=N/Nc2nc(C)cc(=O)[nH]2)c(O)c1	500 nM
COc1cccc(/C=N\NC(=O)c2ccc(Cn3cc(Br)c([N+](=O)[O-])n3)o2)c1O	5070 nM
COc1cc(NC(=O)c2ccccc2NS(=O)(=O)c2ccc(Cl)s2)cc(OC)c1	> 16000 nM (inactive)
Cc1n[nH]c(C)c1CCNCc1ccc(OCC(O)CN2CCCCC2)cc1 (stereo not given)	> 15000 nM (inactive)
